Patent publication US12697290B2, “Cosmetic compounds having two linked maleimide groups, cosmetic preparations, and method for treatment of keratin materials” (TARA BRANDS EUROPE S.L.U., priority 2022, dated 2026)

Assay: Thiol recombination: reaction of test compound with cysteine reagent, conversion into mono- and bis-Michael-addition products monitored by LC-MS
Settings: 30° C.; for Conversion at 15 min, bis-Michael-addition product (bis) / Conversion at 15 min, mono-Michael-addition product (mono) / Conversion at 30 min, bis-Michael-addition product (bis) / Conversion at 30 min, mono-Michael-addition product (mono) / Conversion at 60 min, bis-Michael-addition product (bis) / Conversion at 60 min, mono-Michael-addition product (mono): test solution 1 (pH=5.4), 0.05M
From the text: N-Fmoc-cysteine (hereinafter C1) or N-Cbz-cysteine (hereinafter C2) were obtained by reduction of their cysteine counterparts via a literature known method. Adv. Syn. Catal., 2020, 362, 5093-5104. DOI: 10.1002/adsc.202000716. “OLAPLEX® No. 0 Intensive Bond Building Hair Treatment” is a commercially available product which comprises an active agent, water, phenoxyethanol and sodium benzoate. The active agent is hereinafter labelled “Olaplex active agent” or “reference compound #2”.
The compound to be tested (1 eq.) was dissolved in an aqueous media (0.02-0.05 M) and 4 eq. of cysteine reagent (N-Fmoc-cysteine (C1) or N-Cbz-cysteine (C2)) were added. Two test solutions were used as aqueous media: test solution 1 was a phosphate buffer (pH=5.4) with or without an emulsifier (e.g. Eumulgin) and test solution 2 was an aqueous solution containing 0.49% (w/w) sodium benzoate and 0.30% (w/w) citric acid with or without an emulsifier (e.g. Eumulgin).
To make the phosphate buffer a solution of 0.1-M solution of citric acid (use citric acid monohydrate) and a 0.2-M solution of Na2HPO4 (use Na2HPO4 or Na2HPO4*2H2O) were prepared and mixed with the following ratio: 44.25 mL/55.75 mL=mL 0.1M-citric acid/mL 0.2M Na2HPO4 to give a buffer solution with pH=5.4.
The tests were performed at ambient temperature of 30° C. under stirring with small magnetic stirrers in LC-MS vials or small glass vials (see picture 1). The reactions were performed under normal atmosphere. The reactions were monitored by LC-MS. The reaction scale was between 4 and 10 mg of tested compound. To calculate the conversion into products the ratio between cysteine reagent, mono-Michael-addition product (mono) and bis-Michael-addition product (bis) as shown in the following schemes were compared.

[1] = test solution 1 (pH=5.4)+1% eumulgin, 0.02M
[2] = test solution 1 (pH=5.4)+1% eumulgin, 0.02M, 60 min
[3] = test solution 1 (pH=5.4)+2.5% eumulgin, 0.02M
[4] = test solution 1 (pH=5.4)+2.5% eumulgin, 0.02M, 60 min
[5] = test solution 2+1% Eumulgin, 0.02M
[6] = test solution 2+1% Eumulgin, 0.02M, 60 min

| Compound | Conversion at 30 min, bis [1] [% bis] | Conversion at 30 min, mono [1] [% mono] | Conversion at 60 min, bis [2] [% bis] | Conversion at 60 min, mono [2] [% mono] | Conversion at 30 min, bis [3] [% bis] | Conversion at 60 min, bis [4] [% bis] | Conversion at 5 h, bis [3] [% bis] | Conversion at 15 min, bis-Michael-addition product (bis) [% bis] | Conversion at 15 min, mono-Michael-addition product (mono) [% mono] | Conversion at 30 min, bis-Michael-addition product (bis) [% bis] | Conversion at 30 min, mono-Michael-addition product (mono) [% mono] | Conversion at 60 min, bis-Michael-addition product (bis) (60 min) [% bis] | Conversion at 60 min, mono-Michael-addition product (mono) (60 min) [% mono] | Conversion at 30 min, bis [5] [% bis] | Conversion at 30 min, mono [5] [% mono] | Conversion at 60 min, bis [6] [% bis] | Conversion at 60 min, mono [6] [% mono] | Conversion at 60 min, mono and bis (test solution 2+1% Eumulgin, 0.02M, 60 min, mono and bis together, peaks are not separated in LC-MS) |
| --- | --- | --- | --- | --- | --- | --- | --- | --- | --- | --- | --- | --- | --- | --- | --- | --- | --- | --- |
| O=C1C=CC(=O)N1CCCOCCOCCOCCCN1C(=O)C=CC1=O [Reference compound #1, reference compound] | 50 | 0 | 60 | 0 | 97 | 88 | 82 | 9 | 0 | 10 | 0 | 22 | 29 | 30 | 30 | 56 | 9 |  |
| O=C1C=CC(=O)N1CCCOCC12CC(COCCCN3C(=O)C=CC3=O)(C1)C2 [SPC-TB-0001] |  |  |  |  |  |  |  | 15 | 0 | 28 | 0 | 21 | 0 |  |  |  |  |  |
| O=C1C=CC(=O)N1CCOCC12CC(COCCN3C(=O)C=CC3=O)(C1)C2 [SPC-TB-0002, 1,1′-(((bicyclo[1.1.1]pentane-1,3-diylbis(methylene))bis(oxy))bis(ethane-2,1-diyl))bis(1H-pyrrole-2,5-dione)] |  |  |  |  |  |  |  | 17 | 0 | 11 | 0 | 10 | 0 |  |  |  |  |  |
| O=C1C=CC(=O)N1CCCOCC12CCC(COCCCN3C(=O)C=CC3=O)(CC1)CC2 [SPC-TB-0003] |  |  |  |  |  |  |  | 29 | 9 | 77 | 10 |  |  |  |  |  |  |  |
| O=C1C=CC(=O)N1CCOCCOCC12CC(COCCOCCN3C(=O)C=CC3=O)(C1)C2 [SPC-TB-0007, 1,1′-(((((bicyclo[1.1.1]pentane-1,3-diylbis(methylene))bis(oxy))bis(ethane-2,1-diyl))bis(oxy))bis(ethane-2,1-diyl))bis(1H-pyrrole-2,5-dione)] | 53 | 20 | 67 | 9 | 79 | 79 | 73 | 24 | 47 | 22 | 66 | 50 | 37 | 26 | 26 | 44 | 10 |  |
| O=C1C=CC(=O)N1CCOCCOCCOCC12CC(COCCOCCOCCN3C(=O)C=CC3=O)(C1)C2 [SPC-TB-0013] | 67 | 16 | 66 | 15 | 57 | 57 | 46 |  |  |  |  |  |  | 36 | 10 |  |  | 50% mono and bis* |
